Key:
[1] = test system: brain-like endothelial cells (BLECs); assay: in vitro; conditions: control, absence of peptide (0 nM)
Procedure: The in vitro BBB model, consisting of CD34^+ endothelial cells (ECs) derived from hematopoietic stem cells in co-culture with bovine brain pericytes, was established as described by Cecchelli et al.. Written and informed consent was obtained for the collection of human umbilical cord blood, in compliance with French legislation. […] All experiments were carried out in line with the authorized protocol.
These isolated CD34+ cells were cultured in EGM-2, supplemented with 20% (v:v) FBS and 50 ng/mL vascular endothelial growth factor on 1% (w:v) gelatine-coated 24-well plates (2 × 10^5 cells/well). After 15–20 days, ECs are seen in the culture dish. For each experiment, the cells were expanded in 1% (w:v) gelatine-coated T75 flasks (BD Biosciences, Le Pont-de-Claix, France) in EGM-2. Bovine brain pericytes were isolated and characterized as described by Vandenhaute et al.. Sub-clones were cultured in Dulbecco’s Modified Eagle’s Medium supplemented with 20% (v:v) FBS, 2 mM L-glutamine, 50 µg/mL gentamycin, and 1 ng/mL basic fibroblast growth factor. At confluency, 5 × 10^4 cells were seeded in ECM-5 with 5% (v:v) FBS, 50 µg/mL gentamycin, and 0.5% endothelial cell growth factor in gelatine-coated 12-well plates (Costar, Corning Inc., New York, NY, USA). CD34^+-derived ECs were seeded at 8 × 10^4 cells per Matrigel-coated (BD Biosciences) insert (3401, Corning Inc., NY, USA) and put in co-culture with the bovine brain pericytes, with the pericytes at the bottom of the well, for 6 days to achieve brain-like endothelial cell (BLEC) characteristics (Figure 4b).
At the beginning of the permeability experiments, inserts with BLEC monolayers were transferred to new abluminal (receiver) compartments previously filled with 1.5 mL of RH buffer, and 500 µL of the compounds dissolved in RH buffer, with the addition of the paracellular marker sodium fluorescein (NaFlu), were added to the luminal (donor) compartment. After 3 h of incubation at 37 °C, with a shaking velocity of 60 rpm, aliquots were taken from the donor and receiver compartment. The BLEC monolayers were washed twice with cold RH buffer and lysed with RLT Lysis buffer. The samples were kept at −20 °C pending analysis in low-binding tubes.
An increase in the permeability to NaFlu in the presence of the peptide can indicate an increase in paracellular leakage and consequent loss of barrier integrity. To evaluate the ability of test compounds to cross Matrigel-coated filters without cells and to control for the adsorption to plastics and/or Matrigel, the NaFlu and peptide’s permeability over inserts without cells were also assessed. Mass balance (M.B%) was calculated from the amount of compound recovered in both compartments at the end of the experiment divided by the total amount added to the donor compartment at the start of the experiment.
Samples from both compartments as well as the lysed endothelial cells were analysed for fluorescence using a Synergy H1 (Biotek) set to quantify NaFlu (wavelengths Excitation 490 nm and Emission 525 nm) and with UPLC-MS/MS to assess the permeability and cellular uptake of the peptides. All experiments were performed in triplicate (n = 3 independent experiments per concentration and cCPPs).
Papp is the apparent permeability, J is the rate of appearance of the compound in the receiver compartment (amount/sec), and C0 is the concentration in the donor compartment at the start of the experiment (amount/mL).

dynamin = test system: dynamin; design: method as in PMID 16740485, PMID 24491918; conditions: cited from earlier work

Compound | Permeability (Pe) to sodium fluorescein, mean [1] | Decrease in dynamin activity (dynamin; 50 µM) [%] | IC50 (dynamin) [µM]
O=C([O-])c1ccccc1-c1c2ccc(=O)cc-2oc2cc([O-])ccc12.[Na+].[Na+] [sodium fluorescein, reference compound] | 0,46 10‐3 cm/min | – | –
O=C(N/N=C/c1ccc(O)c(O)c1)c1cc2ccccc2cc1O [Dynasore, dynasore] | – | 70 | 15

Source: paper PMC10222203 (Pharmaceutics, 2023)
